The record followed here is patent publication US20030144243A1, “Combination of a crystalline drug form and atiotropium salt” (priority 2001, published 2003).

The nature of this data set: resistivity in solution, crystalline versus amorphous form. It is filed as physicochemical. As to conditions: compared with the amorphous form at an equivalent concentration in solution.

Regarding `CCNC(=O)[C@H]1O[C@@H](n2cnc3c(NCC(c4ccccc4)c4ccccc4)nc(C(=O)NCCNC(=O)NC4CCN(c5ccccn5)CC4)nc32)[C@H](O)[C@@H]1O` [crystalline form, 6-[(2,2-diphenylethyl)amino]-9-(N-ethyl-β-D-ribofuranosyluronamide)-N-(2-{N′-[1-(2-pyridyl)-4-piperidyl]ureido}ethyl)-9H-purine-2-carboxamide], the resistivity in solution entry is reported as “higher resistivity than the amorphous form”.
